In brackets after ≈: the same amount, converted by molar mass.
System: T1, monoamine oxidase (MAO)
T1 construct: gene MAOA
Test: MAO inhibition assay (procedure by reference)
Conditions: isoenzyme and enzyme source not told

| IC50 | Structure (SMILES) |
| --- | --- |
| 35 µg/mL (≈ 233 µM) | O=C1OCc2c(O)cccc21 [compound 1, 4-hydroxyphthalide] |
| 28 µg/mL (≈ 166 µM) | C[C@@H]1NC(=O)[C@@H]2CCCN2C1=O [compound 5, Cis-cyclo(L-Ala-L-Pro)] |
